Test results: patent US11020358B2, “Method for the anti-senescence of and/or rejuvenating stem cells” (GWO XI STEM CELL APPLIED TECHNOLOGY CO., LTD., priority 2014, dated 2021)

What was measured:
hBMMSCs = assay: SA-β-gal activity assay in hBMMSCs; type: cell-based, human
Description: Three portions of equal volume of the above culture medium containing the sub-cultured hBMMSCs were provided. The first and second portions were handled by adding thereinto H2O2 at a final concentration of 100 μM, reacting for 2 hours to induce senescence of the hBMMSCs, replacing the culture medium with a fresh culture medium, adding thereinto TC at final concentrations of 0 and 6 μM respectively, and reacting for 6 hours to obtain “H2O2 group (i.e., treated with H2O2 for 2 hours, but not treated with TC)” and “H2O2+TC6 group (i.e., treated with H2O2 for 2 hours and then treated with 6 μM of TC for 6 hours) hBMMSCs. The third portion without any treatment was referred to as “untreated group” hBMMSCs.
The ADSCs in each sample of the group obtained from Example 1 (1) were washed with PBS twice, fixed with 3% formaldehyde and washed with PBS once. […]
The staining solution was removed. […] The cells were observed and photographed under a microscope with 10-fold magnification, and the percentage of SA-β-gal activity-positive cells was calculated. […]

SIRT1 gene [1] = assay: Quantitative RT-PCR of SIRT1 gene in WJSCs; type: cell-based
Description: Three portions of equal volume of the above culture medium containing the sub-cultured WJSCs were provided. The first and second portions were handled by adding thereinto H2O2 at a final concentration of 100 μM, reacting for 2 hours to induce senescence of the WJSCs, replacing the culture medium with a fresh culture medium, adding thereinto TC at final concentrations of 0 and 6 μM, respectively, and reacting for 6 hours to obtain “H2O2 group (i.e., treated with H2O2 for 2 hours, but not treated with TC)” and “H2O2+TC6 group (i.e., treated with H2O2 for 2 hours and then treated with 6 μM of TC for 6 hours) WJSCs. The third portion without any treatment was referred to as “untreated group” WJSCs. […]
(§1) Each of the cDNA of ADSCs of different groups from Experiment (3-1) was handled as follows. […] The mixture was then placed in a real-time quantitative PCR machine (ABI prism 7700 sequence detection system) to perform a reaction for quantifying the gene expression levels. […]
(§2) The steps as shown in Experiment (3-2) were repeated, but the cDNA was substituted with the cDNA of the BMMSCs or WJSCs from Experiment (3-1) to conduct quantitative RT-PCR.

SIRT1 gene [2] = assay: Quantitative RT-PCR of SIRT1 gene in hBMMSCs; type: cell-based, human
Description: Three portions of equal volume of the above culture medium containing the sub-cultured hBMMSCs were provided. The first and second portions were handled by adding thereinto H2O2 at a final concentration of 100 μM, reacting for 2 hours to induce senescence of the hBMMSCs, replacing the culture medium with a fresh culture medium, adding thereinto TC at final concentrations of 0 and 6 μM respectively, and reacting for 6 hours to obtain “H2O2 group (i.e., treated with H2O2 for 2 hours, but not treated with TC)” and “H2O2+TC6 group (i.e., treated with H2O2 for 2 hours and then treated with 6 μM of TC for 6 hours) hBMMSCs. The third portion without any treatment was referred to as “untreated group” hBMMSCs. […]
as §1, §2

telomerase = assay: Telomerase activity assay (TRAP) in ADSCs; type: cell-based, human
Description: It has been know that the activity of telomerase plays a key role in controlling cell senescence. The activity of telomerase in each of the “untreated group,” “H2O2 group” and “TC6 group” ADSCs from Example 1 (1) was analyzed by Telomeric Repeat Amplification Protocol (TRAP) as follows. The 3′-end primer of telomere (i.e., Telo TAGGG) was extended by PCR under the catalysis of telomerase to amplify the TTAGGG repeat sequence. Then, signals of the product were detected by enzyme-linked immunosorbent assay (ELISA). The results are shown in FIG. 7, wherein the activity of telomerase in HEK293 cells (without any treatment) was served as a positive control group.

[3] = H2O2 group compared to untreated group
[4] = H2O2+TC6 group compared to H2O2 group

Row | Compound | number of the SA-β-gal activity-positive hBMMSCs (hBMMSCs; H2O2 group (100 μM 2 h) compared to untreated group) | expression level of SIRT1 gene in WJSCs (SIRT1 gene [1]; [3]) | expression level of SIRT1 gene in hBMMSCs (SIRT1 gene [2]; [3]) | activity of telomerase (telomerase; H2O2 group ADSCs compared to untreated group) | number of the SA-β-gal activity-positive hBMMSCs (hBMMSCs; H2O2+TC6 group (6 μM TC 6 h after H2O2) compared to H2O2 group) | expression level of SIRT1 gene in WJSCs (SIRT1 gene [1]; [4]) | expression level of SIRT1 gene in hBMMSCs (SIRT1 gene [2]; [4]) | activity of telomerase (telomerase; ADSCs, 6 μM TC (“TC6 group”), compared to H2O2 group)
1 | OO [H2O2, reference compound] | significantly increased | significantly reduced | significantly reduced | significantly decreased |  |  |  | 
2 | O=C/C=C/c1ccccc1 [TC, trans-cinnamaldehyde] |  |  |  |  | significantly reduced | significantly increased | significantly increased | significantly increased
